Assay results taken from patent US20210198277A1, “AMINE-SUBSTITUTED ARYL OR HETEROARYL COMPOUNDS” (Epizyme, Inc., priority 2016, published 2021).
Like-named read-outs stand apart in the source and are kept apart here.

Columns and labels:
[1] = biological target: T1, EHMT1 (Homo sapiens, UniProt Q9H9B1); assay: EHMT1 enzyme assay on peptide substrate (EHMT1 PEP); type: biochemical; conditions: read-out: EHMT1 PEP (IC50 μM)
T1 sequence (Q9H9B1 1-1298): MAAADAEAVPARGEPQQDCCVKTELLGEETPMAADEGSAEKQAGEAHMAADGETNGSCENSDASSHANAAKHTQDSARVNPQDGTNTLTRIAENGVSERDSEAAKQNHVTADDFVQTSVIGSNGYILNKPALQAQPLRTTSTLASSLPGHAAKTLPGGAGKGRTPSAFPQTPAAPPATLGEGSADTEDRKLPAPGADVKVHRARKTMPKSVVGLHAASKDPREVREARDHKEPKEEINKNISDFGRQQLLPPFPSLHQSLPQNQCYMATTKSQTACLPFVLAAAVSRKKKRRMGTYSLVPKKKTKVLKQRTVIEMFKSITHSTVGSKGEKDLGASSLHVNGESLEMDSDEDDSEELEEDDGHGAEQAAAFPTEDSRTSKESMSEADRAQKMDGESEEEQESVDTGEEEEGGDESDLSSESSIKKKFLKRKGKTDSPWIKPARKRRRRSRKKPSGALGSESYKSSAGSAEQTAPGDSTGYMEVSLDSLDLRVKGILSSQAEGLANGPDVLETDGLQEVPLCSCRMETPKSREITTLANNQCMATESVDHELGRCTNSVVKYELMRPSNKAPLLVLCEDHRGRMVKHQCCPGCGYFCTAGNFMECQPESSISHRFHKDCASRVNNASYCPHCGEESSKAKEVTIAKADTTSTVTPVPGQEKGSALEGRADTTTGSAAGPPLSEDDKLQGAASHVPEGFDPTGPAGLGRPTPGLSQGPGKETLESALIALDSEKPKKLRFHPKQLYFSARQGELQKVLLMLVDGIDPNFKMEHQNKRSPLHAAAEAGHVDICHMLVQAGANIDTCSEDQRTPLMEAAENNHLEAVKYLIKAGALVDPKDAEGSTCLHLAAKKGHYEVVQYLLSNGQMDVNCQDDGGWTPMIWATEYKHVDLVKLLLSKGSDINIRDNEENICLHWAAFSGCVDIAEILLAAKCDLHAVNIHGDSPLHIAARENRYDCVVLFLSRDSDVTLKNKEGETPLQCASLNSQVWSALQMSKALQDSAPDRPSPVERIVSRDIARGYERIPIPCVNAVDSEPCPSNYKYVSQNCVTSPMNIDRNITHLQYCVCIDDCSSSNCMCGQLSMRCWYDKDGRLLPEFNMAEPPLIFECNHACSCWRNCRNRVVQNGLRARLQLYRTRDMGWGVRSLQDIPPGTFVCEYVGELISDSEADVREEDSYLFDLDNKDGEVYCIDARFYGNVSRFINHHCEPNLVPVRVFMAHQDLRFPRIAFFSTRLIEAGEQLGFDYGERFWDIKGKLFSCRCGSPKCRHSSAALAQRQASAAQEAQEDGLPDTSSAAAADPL

[2] = biological target: T2, human EHMT2 913-1193 (Homo sapiens, UniProt Q96KQ7); assay: EHMT2 enzyme assay on histone peptide substrate (EHMT2 PEP); type: biochemical; conditions: read-out: EHMT2 PEP (IC50 μM)
T2 construct: recombinant purified human EHMT2 913-1193, Viva; purchased Viva
T2 sequence (Q96KQ7 913-1193): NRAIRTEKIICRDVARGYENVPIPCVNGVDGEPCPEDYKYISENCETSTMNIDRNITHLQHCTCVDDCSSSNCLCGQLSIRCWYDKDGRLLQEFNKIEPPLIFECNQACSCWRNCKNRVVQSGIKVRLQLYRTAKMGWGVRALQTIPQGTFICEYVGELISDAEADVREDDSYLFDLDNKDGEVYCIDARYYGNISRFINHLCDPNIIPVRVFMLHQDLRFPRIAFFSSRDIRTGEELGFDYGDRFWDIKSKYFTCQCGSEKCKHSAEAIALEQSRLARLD
Outline: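 Compounds were tested as 3-fold dilutions, 10 points from a 50 μM final top (2% DMSO), after 30-min preincubation with 0.031 nM enzyme in Bicine buffer pH 7.5. Transfer of ^3H-methyl from ^3H-SAM to biotinylated histone peptide ran 60 min at room temperature and was detected by streptavidin Flashplate scintillation.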

SMILES	IC50 ([1]; Table III)	IC50 ([2]; Table III)	IC50 ([1]; Table II)	IC50 ([2]; Table II)
CNc1ccnc(Nc2ccc(OC)c(OC[C@H](O)CN3CCCC3)c2)n1 (single isomer, unassigned) [Compound 376]	1 to 10 µM	1 to 10 µM		
CNc1ccnc(Nc2ccc(OC)c(OC[C@@H](O)CN3CCCC3)c2)n1 (single isomer, unassigned) [Compound 377]	> 10 µM	1 to 10 µM		
CNc1ccnc(Nc2ccc(OC)c(OCC3CCN(C)C3)c2)n1 (single isomer, unassigned) [Compound 415]	0.1 to 1 µM	1 to 10 µM		
CNc1ccnc(Nc2ccc(OC)c(OCC3CCN(C)C3)c2)n1 (single isomer, unassigned) [Compound 416]	< 0.1 µM	< 0.1 µM		
CNc1cc(C)nc(Nc2ccc(OC)c(OCC3CCN(C)C3)c2)n1 (single isomer, unassigned) [Compound 417]	0.1 to 1 µM	0.1 to 1 µM		
CNc1cc(C)nc(Nc2ccc(OC)c(OCC3CCN(C)C3)c2)n1 (single isomer, unassigned) [Compound 418]	< 0.1 µM	< 0.1 µM		
CNc1ccnc(Nc2ccc(OC)c(OCCCN3CCCC3)c2)n1 [Compound 1, N^2-(4-methoxy-3-(3-(pyrrolidin-1-yl)propoxy)phenyl)-N^4-methylpyrimidine-2,4-diamine]			< 0.1 µM	< 0.1 µM
COc1ccc(Nc2nccc(NCC3CCN(CC(F)F)CC3)n2)cc1OCCCN1CCCC1 [Compound 2, N^4-((1-(2,2-difluoroethyl)piperidin-4-yl)methyl)-N^2-(4-methoxy-3-(3-(pyrrolidin-1-yl)propoxy)phenyl)pyrimidine-2,4-diamine]			< 0.1 µM	< 0.1 µM
COc1ccc(Nc2nccc(NCC3CCOCC3)n2)cc1OCCCN1CCCC1 [Compound 3, N^2-(4-methoxy-3-(3-(pyrrolidin-1-yl)propoxy)phenyl)-N^4-((tetrahydro-2H-pyran-4-yl)methyl)pyrimidine-2,4-diamine]			< 0.1 µM	< 0.1 µM
COc1ccc(Nc2nccc(NCC3CCN(CC(F)(F)F)CC3)n2)cc1OCCCN1CCCC1 [Compound 4, N^2-(4-methoxy-3-(3-(pyrrolidin-1-yl)propoxy)phenyl)-N^4-((1-(2,2,2-trifluoroethyl)piperidin-4-yl)methyl)pyrimidine-2,4-diamine]			0.1 to 1 µM	< 0.1 µM
COc1ccc(Nc2nccc(NC3CCOCC3)n2)cc1OCCCN1CCCC1 [Compound 5, N^2-(4-methoxy-3-(3-(pyrrolidin-1-yl)propoxy)phenyl)-N^4-(tetrahydro-2H-pyran-4-yl)pyrimidine-2,4-diamine]			0.1 to 1 µM	0.1 to 1 µM
COc1ccc(Nc2nccc(NCC(=O)N3CCOCC3)n2)cc1OCCCN1CCCC1 [Compound 51]			0.1 to 1 µM	0.1 to 1 µM
COc1ccc(Nc2nccc(NCC(=O)N(C)c3ccccc3)n2)cc1OCCCN1CCCC1 [Compound 52]			1 to 10 µM	1 to 10 µM
COc1ccc(Nc2nccc(N3Cc4cn[nH]c4C3)n2)cc1OCCCN1CCCC1 [Compound 53]			1 to 10 µM	1 to 10 µM
COc1ccc(Nc2nccc(NC3CCN(C(C)=O)CC3)n2)cc1OCCCN1CCCC1 [Compound 54]			0.1 to 1 µM	0.1 to 1 µM
COc1ccc(Nc2ncc(C)c(NCC3CCN(C(C)=O)CC3)n2)cc1OCCCN1CCCC1 [Compound 55]			0.1 to 1 µM	0.1 to 1 µM
COc1ccc(Nc2nccc(N(C)Cc3ccncc3)n2)cc1OCCCN1CCCC1 [Compound 56]			1 to 10 µM	1 to 10 µM
COc1ccc(Nc2nccc(NCC3CCN(C(C)=O)CC3)n2)cc1COCCN1CC(F)C1 [Compound 57]			1 to 10 µM	1 to 10 µM
c1cc(Nc2nccc(NCC3CCNCC3)n2)cc(OCCCN2CCCC2)c1 [Compound 88]			0.1 to 1 µM	0.1 to 1 µM
COc1ccc(Nc2nccc(NCC3CCNCC3)n2)cc1OCCCN1CCCC1 [Compound 90]			< 0.1 µM	< 0.1 µM
